This is an account of results in patent US9498478B2, “Spiro aminic compounds with NK1 antagonist activity” (Rottapharm Biotech Srl, priority 2011, dated 2016).

The target of one assay is T1, human NK1 receptor (Homo sapiens, UniProt P25103).
T1 construct: human NK1 receptor endogenously expressed in U373 cells; endogenous in cells; host or cells: U373 (human U373MG astrocytoma) cells
T1 sequence (P25103 whole entry): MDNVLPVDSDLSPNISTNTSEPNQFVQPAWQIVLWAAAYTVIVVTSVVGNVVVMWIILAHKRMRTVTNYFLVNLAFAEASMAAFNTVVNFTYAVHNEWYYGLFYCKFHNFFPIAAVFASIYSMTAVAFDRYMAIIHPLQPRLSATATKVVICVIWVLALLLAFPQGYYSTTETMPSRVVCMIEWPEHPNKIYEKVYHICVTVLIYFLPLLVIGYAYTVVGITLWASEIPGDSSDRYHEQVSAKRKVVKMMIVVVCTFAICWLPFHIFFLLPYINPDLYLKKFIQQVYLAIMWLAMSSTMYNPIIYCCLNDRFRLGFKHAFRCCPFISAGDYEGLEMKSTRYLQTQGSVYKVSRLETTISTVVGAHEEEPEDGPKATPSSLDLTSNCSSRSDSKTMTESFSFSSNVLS
Briefly: Antagonist activity at the human NK1 receptor endogenously expressed in U373 cells, agonist-induced cytosolic Ca2+ mobilization (fluorimetric). The class given is cell-based. To be noted: U373 MG, percent inhibition of control response to 3 nM [Sar9,Met(O2)11]-SP at compound concentration 10 μM, read-out: NK1 % inh @10 μM. The protocol: Evaluation of the antagonist activity of compounds at the human NK1 receptor endogenously expressed in U373 cells was determined by measuring their effect on agonist-induced cytosolic Ca2+ ion mobilization using a fluorimetric detection method.
The cells were suspended in DMEM buffer (Invitrogen), then distributed in microplates at a density of 1.10^4 cells/well. The fluorescent probe (Fluo4 NW, Invitrogen) mixed with probenicid in HBSS buffer (Invitrogen) complemented with 20 mM Hepes (Invitrogen) (pH 7.4) was then added into each well and equilibrated with the cells for 60 min at 37° C. then 15 min at 22° C. Thereafter, the assay plates were positioned in a microplate reader (CellLux, PerkinElmer) which was used for the addition of the test compound, reference antagonist or HBSS buffer then 5 min later 3 nM [Sar9,Met(O2)11]-SP or HBSS buffer (basal control), and the measurements of changes in fluorescence intensity which varies proportionally to the free cytosolic Ca2+ ion concentration.
The compounds, dissolved in DMSO and diluted in the medium, have been analysed in the 1 nM-1 μM concentration range (every concentration in duplicate). The antagonistic activity vs receptor NK1 of invention compounds has been expressed as pKb (co-logarithm of the apparent dissociation constant calculated by using the modified Cheng Prusoff equation) or alternatively as a percent of inhibition of the control response to 3 nM [Sar^9,Met(O2)^11]-SP at a compound concentration of 10 μM.
The standard reference antagonist was L 733,060, which was tested in each experiment at several concentrations to generate a concentration-response curve from which its IC50 value is calculated. • Bibliographic reference: EISTETTER, H. R., MILLS, A., BREWSTER, R., ALOUANI, S., RAMBOSSON, C. and KAWASHIMA, E. (1992), Functional characterization of neurokinin-1 receptor on human U373MG astrocytoma cells, Glia, 6: 89.
On to `Cc1ccc(-c2ccccn2)c(C(=O)N2CCC3(CC3)C[C@H]2CNc2ccc(Cl)cn2)c1` [Compound 2, (S)-(5-(((5-chloropyridin-2-yl)amino)methyl)-6-azaspiro[2.5]octan-6-yl)(5-methyl-2-(pyridin-2-yl)phenyl)methanone], for which the inhibition at 10 µM was 87%.

In the case of `O=C(c1cc(F)ccc1-c1ccccn1)N1CCC2(CC2)C[C@H]1CNc1ccc(Cl)cn1` [Compound 3, (S)-(5-(((5-chloropyridin-2-yl)amino)methyl)-6-azaspiro[2.5]octan-6-yl)(5-fluoro-2-(pyridin-2-yl)phenyl)methanone], the inhibition at 10 µM turned out to be 65%.

Turning to `O=C(c1cc(F)ccc1-n1nccn1)N1CCC2(CC2)C[C@H]1CNc1ccc(Cl)cn1` [Compound 4, (S)-(5-(((5-chloropyridin-2-yl)amino)methyl)-6-azaspiro[2.5]octan-6-yl)(5-fluoro-2-(2H-1,2,3-triazol-2-yl)phenyl)methanone], the inhibition at 10 µM amounted to 61%.

In the case of `Cc1ccc(-n2nccn2)c(C(=O)N2CCC3(CC3)C[C@H]2CNc2ccc(C(F)(F)F)cn2)c1` [Compound 5, (S)-(5-methyl-2-(2H-1,2,3-triazol-2-yl)phenyl)(5-(((5-(trifluoromethyl)pyridin-2-yl)amino)methyl)-6-azaspiro[2.5]octan-6-yl)methanone], the inhibition at 10 µM amounted to 67%.

In the case of `Cc1ccc(-n2nccn2)c(C(=O)N2CCC3(CC3)C[C@H]2CNc2ccc(Cl)cn2)c1` [Compound 6, (S)(5-((5-chloropyridin-2-ylamino)methyl)-6-azaspiro[2.5]octan-6-yl)(5-methyl-2-(2H-1,2,3-triazol-2-yl)phenyl)methanone], the inhibition at 10 µM is 61%.

For `Cc1ccc(-c2ncccn2)c(C(=O)N2CCC3(CC3)C[C@H]2CNc2ccc(C(F)(F)F)cn2)c1` [Compound 7, (S)-(5-methyl-2-(pyrimidin-2-yl)phenyl)(5-(((5-(trifluoromethyl)pyridin-2-yl)amino)methyl)-6-azaspiro[2.5]octan-6-yl)methanone], the inhibition at 10 µM was found to be 87%.

The same assay, now with this note: co-logarithm of apparent dissociation constant by modified Cheng Prusoff equation, agonist 3 nM [Sar9,Met(O2)11]-SP, read-out: pKb NK1 (converted).
`O=C(c1cc(Cl)ccc1-c1ncccn1)N1CCC2(CC2)C[C@H]1CNc1ccc(Cl)cn1` [Compound 1, (S)-(5-chloro-2-(pyrimidin-2-yl)phenyl)(5-(((5-chloropyridin-2-yl)amino)methyl)-6-azaspiro[2.5]octan-6-yl)methanone]: the Kb was 2.51 nM.

With `Cc1ccc(-c2ncccn2)c(C(=O)N2CCC3(CC3)C[C@H]2CNc2ccc(Cl)cn2)c1` [Compound 8, (S)-(5-(((5-chloropyridin-2-yl)amino)methyl)-6-azaspiro[2.5]octan-6-yl)(5-methyl-2-(pyrimidin-2-yl)phenyl)methanone], the Kb was 5.01 nM.

In the case of `O=C(c1cc(F)ccc1-c1ncccn1)N1CCC2(CC2)C[C@H]1CNc1ccc(Cl)cn1` [Compound 9, (S)-(5-(((5-chloropyridin-2-yl)amino)methyl)-6-azaspiro[2.5]octan-6-yl)(5-fluoro-2-(pyrimidin-2-yl)phenyl)methanone], the Kb is 2.51 nM.
